# Assay results as given in patent US7361783B2, “(2S)-2-ethylphenylpropionic acid derivative” (Kyorin Pharmaceutical Co., Ltd., priority 2002, dated 2008).
# Tested on: not given
# Test: not given
# Details: not given
row,SMILES,melting point [°C]
1,"CC[C@@H](Cc1ccc(OC)c(C(=O)NCc2ccc(Oc3cc(Cl)cc(Cl)c3)cc2)c1)C(=O)O [Example 30, (2S)-2-{[4-Methoxy-3-(N-{[4-(3,5-dichlorophenoxy)phenyl]methyl}carbamoyl)phenyl]methyl}butyric Acid]",145 to 148
2,"CC[C@@H](Cc1ccc(OC)c(C(=O)NCc2ccc(Oc3ccc(F)c(F)c3)cc2)c1)C(=O)O [Example 9, (2S)-2-{[3-(N-{[4-(3,4-Difluorophenoxy)phenyl]methyl}carbamoyl)-4-methoxyphenyl]methyl}butyric acid]",118 to 120
3,"CC[C@@H](Cc1ccc(OC)c(C(=O)NCc2ccc(Oc3cccc(F)c3F)cc2)c1)C(=O)O [Example 11, (2S)-2-{[3-(N-{[4-(2,3-Difluorophenoxy)phenyl]methyl}carbamoyl)-4-methoxyphenyl]methyl}butyric acid]",93 to 95
4,"CC[C@@H](Cc1ccc(OC)c(C(=O)NCc2ccc(Oc3cc(C(F)(F)F)cc(C(F)(F)F)c3)cc2)c1)C(=O)O [Example 15, (2S)-2-({3-[N-({4-[3,5-Bis(trifluoromethyl)phenoxy]phenyl}methyl)carbamoyl]-4-methoxyphenyl}methyl)butyric acid]",125 to 127
5,"CC[C@@H](Cc1ccc(OC)c(C(=O)NCc2ccc(Oc3cc(F)c(F)c(F)c3)cc2)c1)C(=O)O [Example 17, (2S)-2-{[4-Methoxy-3-(N-{[4-(3,4,5-trifluorophenoxy)phenyl]methyl}carbamoyl)phenyl]methyl}butyric acid]",133 to 135
6,"CC[C@@H](Cc1ccc(OC)c(C(=O)NCc2ccc(Oc3ccc(Cl)c(C(F)(F)F)c3)cc2)c1)C(=O)O [Example 34, (2S)-2-{[4-Methoxy-3-(N-{[4-(4-chloro-3-trifluoromethylphenoxy)phenyl]methyl}carbamoyl)phenyl]methyl}butyric acid]",141 to 142

# The next lines start with the values.
row,melting point [°C],SMILES
1,117 to 118,"CC[C@@H](Cc1ccc(OC)c(C(=O)NCc2ccc(Oc3ccc(Cl)c(F)c3)cc2)c1)C(=O)O [Example 32, (2S)-2-{[4-Methoxy-3-(N-{[4-(4-chloro-3-fluorophenoxy)phenyl]methyl}carbamoyl)phenyl]methyl}butyric acid]"
2,139 to 141,"CC[C@@H](Cc1ccc(OC)c(C(=O)NCc2ccc(Oc3ccc(Cl)c(Cl)c3)cc2)c1)C(=O)O [Example 31, (2S)-2-{[4-Methoxy-3-(N-{[4-(3,4-dichlorophenoxy)phenyl]methyl}carbamoyl)phenyl]methyl}butyric acid]"
3,140 to 142,"CC[C@@H](Cc1ccc(OC)c(C(=O)NCc2ccc(Oc3cc(F)cc(F)c3)cc2)c1)C(=O)O [Example 10, (2S)-2-{[3-(N-{[4-(3,5-Difluorophenoxy)phenyl]methyl}carbamoyl)-4-methoxyphenyl]methyl}butyric acid]"
4,140 to 142,"CC[C@@H](Cc1ccc(OC)c(C(=O)NCc2ccc(Oc3ccc(Br)c(Cl)c3)cc2)c1)C(=O)O [Example 33, (2S)-2-{[4-Methoxy-3-(N-{[4-(4-bromo-3-chlorophenoxy)phenyl]methyl}carbamoyl)phenyl]methyl}butyric acid]"
5,116 to 118,"CC[C@@H](Cc1ccc(OC)c(C(=O)NCc2ccc(Oc3cc(F)ccc3F)cc2)c1)C(=O)O [Example 13, (2S)-2-{[3-(N-{[4-(2,5-Difluorophenoxy)phenyl]methyl}carbamoyl)-4-methoxyphenyl]methyl}butyric acid]"
6,106 to 108,"CC[C@@H](Cc1ccc(OC)c(C(=O)NCc2ccc(Oc3c(F)cccc3F)cc2)c1)C(=O)O [Example 14, (2S)-2-{[3-(N-{[4-(2,6-Difluorophenoxy)phenyl]methyl}carbamoyl)-4-methoxyphenyl]methyl}butyric acid]"
7,125 to 128,"CC[C@@H](Cc1ccc(OC)c(C(=O)NCc2ccc(Oc3cc(F)cc(C(F)(F)F)c3)cc2)c1)C(=O)O [Example 35, (2S)-2-{[4-Methoxy-3-(N-{[4-(3-fluoro-5-trifluoromethylphenoxy)phenyl]methyl}carbamoyl)phenyl]methyl}butyric acid]"

# Tested on: male Beagle dog
# Test: Test of lipid-lowering effect in Beagle dog
# Assay type: in vivo
# Details: serum; oral 0.03 mg/kg/day once a day for 14 days; before vs after administration
# Method: Test of Lipid-lowering Effect
# To a 27-month old male Beagle dog (HRA Beagle; Convance Research Products Inc.) was orally administered testing compound (0.3 mg/mL) in weak aqueous alkali solution sealed in a gelatin capsule once a day for continuous 14 days (0.03 mg/kg/day). For the feed during the period of administration, standard diet (Canine diet, PMI nutrition International Inc.) was used. Blood was collected before start of administration and after administration for 14 days, and total cholesterol value in serum and triglyceride value were measured by enzymic method [Cholesterol E-Test Wako (Wako Pure Chemical Industries,Ltd.), Liquitec TGII reagent 1, 2 (Rosch) and standard serum for measurement of lipid (Rosch) were used]. The decreasing rates of total cholesterol value and triglyceride value were calculated, respectively, according to following calculation formula. Decreasing rate (%)=(Measured value before administration−Measured value after administration)/Measured value before administration×100 [Result]
SMILES,Decreasing rate Total cholesterol [%],Decreasing rate Triglyceride [%]
"CC[C@@H](Cc1ccc(OC)c(C(=O)NCc2ccc(Oc3cc(F)cc(F)c3)cc2)c1)C(=O)O [Example 10, (2S)-2-{[3-(N-{[4-(3,5-Difluorophenoxy)phenyl]methyl}carbamoyl)-4-methoxyphenyl]methyl}butyric acid]",28,50

# Target: T1, human peroxisome proliferator-activated receptor (PPAR) α (Homo sapiens, UniProt Q07869)
# T1 construct: expressed in transfected cells; host or cells: CHO cells
# T1 sequence (Q07869 239-466 limits assumed): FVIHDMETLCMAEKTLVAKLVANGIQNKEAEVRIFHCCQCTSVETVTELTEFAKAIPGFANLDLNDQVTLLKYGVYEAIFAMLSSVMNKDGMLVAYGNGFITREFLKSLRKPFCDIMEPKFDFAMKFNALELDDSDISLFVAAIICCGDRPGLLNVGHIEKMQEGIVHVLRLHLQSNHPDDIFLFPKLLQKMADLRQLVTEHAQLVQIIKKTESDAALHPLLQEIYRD
# Test: Test of transcriptional activation on human PPARα (luciferase reporter, transfected CHO cells)
# Assay type: cell-based
# Details: CHO cells cotransfected with yeast DNA-binding domain/human PPARα ligand-binding domain fusion and reporter plasmid; luciferase after 24 hours, corrected with Renilla internal standard
# Method: Test of Transcriptional Activation on Human Peroxisome Proliferator-activated Receptor (PPAR) α
# The CHO cells were cultured in a Dulbecco-modified Eagle's medium containing 10% delipid fetal calf serum (FCS/DMEM). To these cells were cotransfected receptor plasmid and its reporter plasmid (STRATAGENE Corp.) that express fused protein of DNA-binding domain being transcription factor of yeast with ligand-binding domain of human PPARα (Biochemistry, 1993, 32, 5598), and luciferase plasmid of Renilla (Promega Corp.) for internal standard, using lipofectamine. Thereafter, testing compound or (8S)-HETE being a control compound was added in the 10% SFCS/DMEM and both luciferase activities were measured after 24 hours, which were corrected with internal standard.
row,SMILES,EC50 [nM]
1,"CC[C@@H](Cc1ccc(OC)c(C(=O)NCc2ccc(Oc3ccc(F)c(F)c3)cc2)c1)C(=O)O [Example 9, (2S)-2-{[3-(N-{[4-(3,4-Difluorophenoxy)phenyl]methyl}carbamoyl)-4-methoxyphenyl]methyl}butyric acid]",1.6
2,"CC[C@@H](Cc1ccc(OC)c(C(=O)NCc2ccc(Oc3cc(F)c(F)c(F)c3)cc2)c1)C(=O)OC [Example 16, Methyl (2S)-2-{[4-methoxy-3-(N-{[4-(3,4,5-trifluorophenoxy)phenyl]methyl}carbamoyl)phenyl]methyl}butyrate]",2.3

# The next lines start with the values.
row,EC50 [nM],SMILES
1,2.9,"CC[C@@H](Cc1ccc(OC)c(C(=O)NCc2ccc(Oc3cc(F)cc(F)c3)cc2)c1)C(=O)O [Example 10, (2S)-2-{[3-(N-{[4-(3,5-Difluorophenoxy)phenyl]methyl}carbamoyl)-4-methoxyphenyl]methyl}butyric acid]"
2,1300,"CCCCC/C=C\C/C=C\C=C\[C@@H](O)C/C=C\CCCC(=O)O [(8S)-HETE, reference compound]"
